In patent publication US12018021B2 (UCB Biopharma SRL, priority 2018, dated 2024):

molecular target: IgE-Tb / FcεRIα-Y131A-AF488 (Homo sapiens, UniProt P01854); assay: IgE-Tb / FcεRIα-Y131A-AF488 FRET assay (protocol for examples 1 to 233); type: binding; conditions: examples 1 to 233: 5 nM IgE-Tb, 25 nM FcεRIα-Y131A-AF488, incubated 2 hours at room temperature; read-out: Y131A FRET IC50 range
Summary of the method: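 Compounds (top final concentration usually 10 μM, 3-fold, 10 points, 2% DMSO) incubated 2 h at room temperature with IgE-Tb (5 nM) and FcεRIα-Y131A-AF488 (25 nM). Background from 200 nM unlabelled receptor subtracted; FRET ratio 520/495 nm after 330 nm excitation gave percent inhibition, fitted four-parameter for IC50.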

IgE-Tb / FcεRIα-Y131A-AF488, sequence (P01854 1-427 limits assumed, stated change not applied): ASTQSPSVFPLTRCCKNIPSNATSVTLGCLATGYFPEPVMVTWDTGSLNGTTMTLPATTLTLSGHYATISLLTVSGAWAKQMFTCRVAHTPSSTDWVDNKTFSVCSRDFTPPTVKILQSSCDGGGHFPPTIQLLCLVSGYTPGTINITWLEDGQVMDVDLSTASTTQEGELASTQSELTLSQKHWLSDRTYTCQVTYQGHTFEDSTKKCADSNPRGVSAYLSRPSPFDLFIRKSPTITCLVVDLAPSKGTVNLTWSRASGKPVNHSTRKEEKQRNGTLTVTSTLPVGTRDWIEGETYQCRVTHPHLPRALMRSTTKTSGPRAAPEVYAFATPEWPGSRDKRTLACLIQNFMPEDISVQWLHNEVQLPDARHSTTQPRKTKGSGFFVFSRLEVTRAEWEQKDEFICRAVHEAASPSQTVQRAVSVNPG

Row | Compound | IC50 [nM]
1 | N#Cc1ncn([C@H]2CCc3sc(NC(=O)C4CC4)c(C(=O)NCC4CC4)c3C2)c1N [Example 104, (5S)-5-(5-Amino-4-cyano-imidazol-1-yl)-2-(cyclopropanecarbonylamino)-N-(cyclopropylmethyl)-4,5,6,7-tetrahydrobenzothiophene-3-carboxamide] | < 1000
2 | Cc1cc(Nc2nncn2[C@H]2CCc3sc(NC(=O)C4CC4)c(C(=O)NCC4CC4)c3C2)n(C)n1 [Example 106, (5S)-2-(Cyclopropanecarbonylamino)-N-(cyclopropylmethyl)-5-[3-[(2,5-dimethylpyrazol-3-yl)amino]-1,2,4-triazol-4-yl]-4,5,6,7-tetrahydrobenzothiophene-3-carboxamide] | < 1000
3 | Cc1cc(-n2cnnc2N[C@H]2CCc3sc(NC(=O)C4CC4)c(C(=O)NCC4CC4)c3C2)n(C)n1 [Example 107, (5S)-2-(Cyclopropanecarbonylamino)-N-(cyclopropylmethyl)-5-[[4-(2,5-dimethylpyrazol-3-yl)-1,2,4-triazol-3-yl]amino]-4,5,6,7-tetrahydrobenzothiophene-3-carboxamide] | 1000 to 10000
4 | Cc1cc(Nc2nncn2[C@H]2CCc3sc(NC(=O)C4CC4)c(C(=O)NCC(C)C)c3C2)n(C)n1 [Example 108, (5S)-2-(Cyclopropanecarbonylamino)-5-[3-[(2,5-dimethylpyrazol-3-yl)amino]-1,2,4-triazol-4-yl]-N-isobutyl-4,5,6,7-tetrahydrobenzothiophene-3-carboxamide] | < 1000
5 | NC1CCc2sc(NC(=O)C3CC3)c(C(=O)NCC3CC3)c2C1 (stereo not drawn) [Example 109, 5-Amino-2-(cyclopropanecarbonylamino)-N-(cyclopropylmethyl)-4,5,6,7-tetrahydrobenzothiophene-3-carboxamide] | 10000 to 50000
6 | N#CN=C(Nc1ccccc1)NC1CCc2sc(NC(=O)C3CC3)c(C(=O)NCC3CC3)c2C1 (stereo not drawn) [Example 110, 5-[[N′-Cyano-N-phenyl-carbamimidoyl]amino]-2-(cyclopropanecarbonylamino)-N-(cyclopropylmethyl)-4,5,6,7-tetrahydrobenzothiophene-3-carboxamide] | < 1000
7 | CC1(CNc2nncn2[C@H]2CCc3sc(NC(=O)C4CC4)c(C(=O)NCC4CC4)c3C2)CC1 [Example 112, (5S)-2-(Cyclopropanecarbonylamino)-N-(cyclopropylmethyl)-5-[3-[(1-methylcyclopropyl)methylamino]-1,2,4-triazol-4-yl]-4,5,6,7-tetrahydrobenzothiophene-3-carboxamide] | < 1000
8 | CC(=O)Nc1cncn1[C@H]1CCc2sc(NC(=O)C3CC3)c(C(=O)NCC3CC3)c2C1 [Example 113, (5S)-5-(5-Acetamidoimidazol-1-yl)-2-(cyclopropanecarbonylamino)-N-(cyclopropylmethyl)-4,5,6,7-tetrahydrobenzothiophene-3-carboxamide] | < 1000
9 | O=C(NCC1CC1)c1c(NC(=O)C2CC2)sc2c1C[C@@H](n1cnnc1Nc1ccncc1)CC2 [Example 115, (5S)-2-(Cyclopropanecarbonylamino)-N-(cyclopropylmethyl)-5-[3-(4-pyridylamino)-1,2,4-triazo-4-yl]-4,5,6,7-tetrahydrobenzothiophene-3-carboxamide] | < 1000
10 | COc1ccc(NC(=NC#N)NC2CCc3sc(NC(=O)C4CC4)c(C(=O)NCC4CC4)c3C2)cc1OC (stereo not drawn) [Example 116, 5-[[N′-Cyano-N-(3,4-dimethoxyphenyl)carbamimidoyl]amino]-2-(cyclopropanecarbonylamino)-N-(cyclopropylmethyl)-4,5,6,7-tetrahydrobenzothiophene-3-carboxamide] | < 1000
11 | CCOC(=O)c1ncn([C@H]2CCc3sc(NC(=O)C4CC4)c(C(=O)NCC4CC4)c3C2)c1N [Example 117, Ethyl 5-amino-1-[(5S)-2-(cyclopropanecarbonylamino)-3-(cyclopropylmethylcarbamoyl)-4,5,6,7-tetrahydrobenzothiophen-5-yl]imidazole-4-carboxylate] | < 1000
12 | O=C(NCC1CC1)c1c(NC(=O)C2CC2)sc2c1CC(Nc1noc(=O)[nH]1)CC2 (stereo not drawn) [Example 119, 2-(Cyclopropanecarbonylamino)-N-(cyclopropylmethyl)-5-[(5-oxo-4H-1,2,4-oxadiazol-3-yl)amino]-4,5,6,7-tetrahydrobenzothiophene-3-carboxamide] | < 1000
13 | CCNc1c(NC2CCc3sc(NC(=O)C4CC4)c(C(=O)NCC4CC4)c3C2)c(=O)c1=O (stereo not drawn) [Example 120, 2-(Cyclopropanecarbonylamino)-N-(cyclopropylmethyl)-5-[[2-(ethylamino)-3,4-dioxo-cyclobuten-1-yl]amino]-4,5,6,7-tetrahydrobenzothiophene-3-carboxamide] | < 1000
14 | N#CN=C(NCC(F)(F)F)NC1CCc2sc(NC(=O)C3CC3)c(C(=O)NCC3CC3)c2C1 (stereo not drawn) [Example 121, 5-[[N′-cyano-N-(2,2,2-trifluoroethyl)carbamimidoyl]amino]-2-(cyclopropanecarbonylamino)-N-(cyclopropylmethyl)-4,5,6,7-tetrahydrobenzothiophene-3-carboxamide] | < 1000
15 | CCNc1nncn1[C@H]1CCc2sc(NC(=O)C3CC3)c(C(=O)NCC3CC3)c2C1 [Example 122, (5S)-2-(cyclopropanecarbonylamino)-N-(cyclopropylmethyl)-5-[3-(ethylamino)-1,2,4-triazol-4-yl]-4,5,6,7-tetrahydrobenzothiophene-3-carboxamide] | < 1000
16 | CCNC(=N[N+](=O)[O-])NC1CCc2sc(NC(=O)C3CC3)c(C(=O)NCC3CC3)c2C1 (stereo not drawn) [Example 123, 2-(cyclopropanecarbonylamino)-N-(cyclopropylmethyl)-5-[(N-ethyl-N′-nitro-carbamimidoyl)amino]-4,5,6,7-tetrahydrobenzothiophene-3-carboxamide] | < 1000
17 | O=C(NCC1CC1)c1c(NC(=O)C2CC2)sc2c1C[C@@H](n1cnnc1Nc1cccnc1)CC2 [Example 124, (5S)-2-(Cyclopropanecarbonylamino)-N-(cyclopropylmethyl)-5-[3-(3-pyridylamino)-1,2,4-triazol-4-yl]-4,5,6,7-tetrahydrobenzothiophene-3-carboxamide] | < 1000
18 | O=C(NCC1CC1)c1c(NC(=O)C2CC2)sc2c1C[C@@H](n1cnnc1Nc1ccc[n+]([O-])c1)CC2 [Example 125, (5S)-2-(Cyclopropanecarbonylamino)-N-(cyclopropylmethyl)-5-[3-[(1-oxidopyridin-1-ium-3-yl)amino]-1,2,4-triazol-4-yl]-4,5,6,7-tetrahydrobenzothiophene-3-carboxamide] | < 1000
19 | Cc1ccc(NC(=N[N+](=O)[O-])NC2CCc3sc(NC(=O)C4CC4)c(C(=O)NCC4CC4)c3C2)cc1 (stereo not drawn) [Example 126, 2-(cyclopropanecarbonylamino)-N-(cyclopropylmethyl)-5-[[N′-nitro-N-(p-tolyl)carbamimidoyl]amino]-4,5,6,7-tetrahydrobenzothiophene-3-carboxamide] | < 1000
20 | O=C(NCC1CC1)c1c(NC(=O)C2CC2)sc2c1C[C@@H](n1ccnc1Nc1cccnc1)CC2 [Example 127, (5S)-2-(Cyclopropanecarbonylamino)-N-(cyclopropylmethyl)-5-[2-(3-pyridylamino)imidazol-1-yl]-4,5,6,7-tetrahydrobenzothiophene-3-carboxamide] | < 1000
21 | O=C(NCC1CC1)c1c(NC(=O)C2CC2)sc2c1C[C@@H](n1cnnc1NCC1CC1)CC2 [Example 130, (5S)-2-(Cyclopropanecarbonylamino)-N-(cyclopropylmethyl)-5-[3-(cyclopropylmethylamino)-1,2,4-triazol-4-yl]-4,5,6,7-tetrahydrobenzothiophene-3-carboxamide] | < 1000
22 | Cc1cc(NC(=S)N[C@H]2CCc3sc(NC(=O)C4CC4)c(C(=O)NCC4CC4)c3C2)n(C)n1 [Example 131, (5S)-2-(Cyclopropanecarbonylamino)-N-(cyclopropylmethyl)-5-[(2,5-dimethylpyrazol-3-yl)carbamothioylamino]-4,5,6,7-tetrahydrobenzothiophene-3-carboxamide] | < 1000
23 | O=C(NCC1CC1)c1c(NC(=O)C2CC2)sc2c1C[C@@H](n1cnnc1Nc1cncnc1)CC2 [Example 132, (5S)-2-(Cyclopropanecarbonylamino)-N-(cyclopropylmethyl)-5-[3-(pyrimidin-5-ylamino)-1,2,4-triazol-4-yl]-4,5,6,7-tetrahydrobenzothiophene-3-carboxamide] | < 1000
24 | O=C(NCC1CC1)c1c(NC(=O)C2CC2)sc2c1C[C@@H](n1ccnc1NCC1CC1)CC2 [Example 133, (5S)-2-(Cyclopropanecarbonylamino)-N-(cyclopropylmethyl)-5-[2-(cyclopropylmethylamino)imidazol-1-yl]-4,5,6,7-tetrahydrobenzothiophene-3-carboxamide] | < 1000
25 | CCNC1=NS(=O)(=O)N=C1NC1CCc2sc(NC(=O)C3CC3)c(C(=O)NCC3CC3)c2C1 (stereo not drawn) [Example 134, 2-(Cyclopropanecarbonylamino)-N-(cyclopropylmethyl)-5-[[4-(ethylamino)-1,1-dioxo-1,2,5-thiadiazol-3-yl]amino]-4,5,6,7-tetrahydrobenzothiophene-3-carboxamide] | < 1000
26 | Cc1ccc(NC(=C[N+](=O)[O-])NC2CCc3sc(NC(=O)C4CC4)c(C(=O)NCC4CC4)c3C2)cc1 (stereo not drawn) [Example 135, 2-(cyclopropanecarbonylamino)-N-(cyclopropylmethyl)-5-[[1-(4-methylanilino)-2-nitro-vinyl]amino]-4,5,6,7-tetrahydrobenzothiophene-3-carboxamide] | < 1000
27 | CCNC(=NC#N)N(C)[C@H]1CCc2sc(NC(=O)C3CC3)c(C(=O)NCC3CC3)c2C1 [Example 136, (5S)-5-[(N′-cyano-N-ethyl-carbamimidoyl)-methyl-amino]-2-(cyclopropanecarbonylamino)-N-(cyclopropylmethyl)-4,5,6,7-tetrahydrobenzothiophene-3-carboxamide] | < 1000
